Source: ChEMBL document CHEMBL1201862, “PubChem BioAssay data set” (2004)
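Cultured in 96-well plates, cells were exposed to test compound for 48 hours across five concentrations. At the GI50, growth is halved.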 Activity calls are given as the source filed them. Rule as the data show it: active = GI50 up to about 1.1 µM and inactive = higher.

What was measured:
Experiment in all cases: NCI anticancer screen, dose series, 48 h
[1] = tested on: A498
[2] = tested on: CAKI-1
[3] = tested on: CCRF-CEM
[4] = tested on: HCC 2998
[5] = tested on: HOP-62
[6] = tested on: LOX IMVI
[7] = tested on: M14
[8] = tested on: MDA-MB-435
[9] = tested on: NCI-H522
[10] = tested on: OVCAR-4
[11] = tested on: RXF 393
[12] = tested on: SK-MEL-2
[13] = tested on: SN12C
[14] = tested on: SR
[15] = tested on: TK-10
[16] = tested on: U-251
[17] = tested on: UACC-257
[18] = tested on: UACC-62
[19] = tested on: SK-MEL-5
[20] = tested on: Hs-578T

Row | SMILES | GI50 [1] | GI50 [2] | GI50 [3] | GI50 [4] | GI50 [5] | GI50 [6] | GI50 [7] | GI50 [8] | GI50 [9] | GI50 [10] | GI50 [11] | GI50 [12] | GI50 [13] | GI50 [14] | GI50 [15] | GI50 [16] | GI50 [17] | GI50 [18] | GI50 [19] | GI50 [20]
1 | COC(=O)CNC(=O)CCSc1nnc(COc2ccc(Cl)cc2)n1-c1ccccc1 | > 100 µM (inactive) | 12 µM (inactive) | 55.5 µM (inactive) | 42.9 µM (inactive) | > 100 µM (inactive) | 29.1 µM (inactive) | 23.4 µM (inactive) | 24.1 µM (inactive) | 15.4 µM (inactive) | 61.1 µM (inactive) | 25.8 µM (inactive) | 23.4 µM (inactive) | 20.3 µM (inactive) | > 10 µM (inactive) | 17.5 µM (inactive) | 64.3 µM (inactive) | 19.1 µM (inactive) | 20.2 µM (inactive) | – | –
2 | COc1ccc(-c2cc(-c3ccc(Nc4ccnc5cc(C(F)(F)F)ccc45)cc3)nc(N)c2C#N)cc1 | > 100 µM (inactive) | > 100 µM (inactive) | – | > 100 µM (inactive) | 43.6 µM (inactive) | 33.3 µM (inactive) | 96.8 µM (inactive) | > 100 µM (inactive) | – | 27.7 µM (inactive) | > 100 µM (inactive) | 45.2 µM (inactive) | – | 26.7 µM (inactive) | > 100 µM (inactive) | 75 µM (inactive) | – | 40.6 µM (inactive) | > 100 µM (inactive) | –
3 | CC(C)(/C=N/O)/[N+]([O-])=C/c1ccccc1 | – | > 100 µM (inactive) | – | > 100 µM (inactive) | > 100 µM (inactive) | > 100 µM (inactive) | > 100 µM (inactive) | > 100 µM (inactive) | – | > 100 µM (inactive) | > 100 µM (inactive) | > 100 µM (inactive) | > 100 µM (inactive) | – | > 100 µM (inactive) | > 100 µM (inactive) | > 100 µM (inactive) | > 100 µM (inactive) | > 100 µM (inactive) | > 100 µM (inactive)
4 | COC(=O)CC(CNC(=O)OCc1ccccc1)OCc1ccc(OC)cc1 (stereo not given) | > 100 µM (inactive) | > 100 µM (inactive) | > 100 µM (inactive) | > 100 µM (inactive) | – | > 100 µM (inactive) | > 100 µM (inactive) | > 100 µM (inactive) | > 100 µM (inactive) | 88.7 µM (inactive) | > 100 µM (inactive) | > 100 µM (inactive) | > 100 µM (inactive) | > 100 µM (inactive) | > 100 µM (inactive) | > 100 µM (inactive) | > 100 µM (inactive) | > 100 µM (inactive) | > 100 µM (inactive) | –
5 | COC(=O)c1cc(C)ccc1/C=C1\Cc2cccc(C)c2C1=O | 46.3 µM (inactive) | 49.2 µM (inactive) | 12.3 µM (inactive) | 47.5 µM (inactive) | 31.2 µM (inactive) | 8.77 µM (inactive) | > 100 µM (inactive) | – | 10.5 µM (inactive) | 68.5 µM (inactive) | 61.9 µM (inactive) | – | 4.9 µM (inactive) | 24.7 µM (inactive) | > 100 µM (inactive) | 36.6 µM (inactive) | 22 µM (inactive) | – | 7.06 µM (inactive) | 57.5 µM (inactive)
6 | CC(=O)c1ccc(O)c(CN(C2CCCCC2)C2CCCCC2)c1O | > 100 µM (inactive) | > 100 µM (inactive) | 0.0611 µM (active) | – | > 100 µM (inactive) | > 100 µM (inactive) | > 100 µM (inactive) | > 100 µM (inactive) | > 100 µM (inactive) | > 100 µM (inactive) | > 100 µM (inactive) | > 100 µM (inactive) | > 100 µM (inactive) | – | 74.3 µM (inactive) | > 100 µM (inactive) | > 100 µM (inactive) | > 100 µM (inactive) | > 100 µM (inactive) | > 100 µM (inactive)
7 | CC1(C)OC2CN(C(=O)OCc3ccccc3)C(CO)C2O1 (stereo not given) | > 100 µM (inactive) | > 100 µM (inactive) | – | > 100 µM (inactive) | > 100 µM (inactive) | > 100 µM (inactive) | > 100 µM (inactive) | > 100 µM (inactive) | > 100 µM (inactive) | > 100 µM (inactive) | > 100 µM (inactive) | > 100 µM (inactive) | > 100 µM (inactive) | – | > 100 µM (inactive) | > 100 µM (inactive) | > 100 µM (inactive) | > 100 µM (inactive) | > 100 µM (inactive) | > 100 µM (inactive)
8 | COc1ccc(N2CC(=O)N(C(=O)COc3ccc(OCC(=O)N4C(=O)CN(c5ccc(OC)cc5)C4=S)cc3)C2=S)cc1 | > 100 µM (inactive) | > 100 µM (inactive) | – | > 100 µM (inactive) | – | – | > 100 µM (inactive) | > 100 µM (inactive) | 32.6 µM (inactive) | > 100 µM (inactive) | > 100 µM (inactive) | > 100 µM (inactive) | > 100 µM (inactive) | – | > 100 µM (inactive) | > 100 µM (inactive) | 48.3 µM (inactive) | 70.8 µM (inactive) | 45.6 µM (inactive) | –
